Measurements published in US20170327556A1, “CARTILAGE-BINDING FUSION PROTEINS” (Merrimack Pharmaceuticals, Inc., priority 2013, published 2017).

Tested on: AKT phosphorylation in bovine chondrocytes
Assay: Stimulation of AKT phosphorylation in primary bovine chondrocytes (pAKT ELISA)
Type: cell-based
Conditions: 10 min stimulation, doses in M (Table 4), 6x-Histidine-tagged fusion proteins
Method: Fusion proteins comprising IGF-1 and a cartilage matrix binding domain were prepared as described above. Six fusion proteins were prepared: GF-Fus1 (6x-Histidine-tagged), GF-Fus2(6x-Histidine-tagged), GF-Fus3 (6x-Histidine-tagged), GF-Fus4 (6x-Histidine-tagged), GF-Fus5 (6x-Histidine-tagged), and GF-Fus6 (6x-Histidine-tagged). In order to ensure that the growth factor portion of the fusion protein was active in the fusion proteins, each construct was tested for its ability to stimulate AKT phosphorylation. Wild-type IGF-1 (wtIGF) was included as a control. Bovine chondrocytes were stimulated with a range of doses of each fusion protein, and pAKT levels were measured by ELISA.
Bovine chondrocytes are isolated from the femoral chondyles of 2-4 week old bovine calves. Knee joints are mounted by removing all tissue surrounding the femur, removing the femoral head with a bone saw or hack saw, and clamping in a tissue vice. Joints are aseptically opened, removing the patella, tibia and fibula. Using a scalpel, cartilage is sliced off the femoral chondyles and placed in sterile PBS (pH=7.4) containing penicillin-streptomycin (1×, Gibco 15140-122). PBS is subsequently removed and pronase solution (50 mL per 5 g of tissue), consisting of high glucose DMEM (Life Technologies Cat#11965-092), fetal bovine serum (10% v/v, Life Technologies Cat#16140071), HEPES (100 mM, Gibco 15630-080), non-essential amino acids (1×, Sigma M7145), penicillin-streptomycin (1×, Gibco 15140-122), proline (400 μM, Sigma P5607-256), Protease Type XIV (2 mg/mL, Sigma Cat# P5147), is added for 1 hour with stirring. After rinsing twice with sterile PBS (pH=7.4), collagenase solution (50 mL per 5 g of tissue), consisting of high glucose DMEM (Life Technologies Cat#11965-092), fetal bovine serum (10% v/v, Life Technologies Cat#16140071), HEPES (100 mM, Gibco 15630-080), NEAA(1×, Sigma M7145), Penicillin-Streptomycin (1×, Gibco 15140-122), 0.25 mg/mL Collagenase P (Roche Cat#11 249 002 001), is added for 18 hours with stirring. Cell are strained, washed, and resuspended in chondrocyte culture medium (low glucose DMEM (1× Gibco 11885-084), Penicillin-Streptomycin (1×, Gibco 15140-122), non-essential amino acids (1×, Sigma M7145), and HEPES (100 mM, Gibco 15630-080)) with fetal bovine serum (10% v/v, Life Technologies Cat#16140071).
For ligand stimulation, chondrocytes were seeded at 200,000 cells/well into 96-well tissue culture plates with 100 μL of chondrocyte culture medium with fetal bovine serum (10% v/v, Life Technologies Cat#16140071). […]

Substance | logEC50 Mean
GF-Fus1: IGF-1 variant polypeptide Long [R^3]-IGF-1, no fused binding domain; used 6x-Histidine-tagged as control [reference compound] | −9.227
GF-Fus3: C-terminal fusion IGF-1(LR3)-PRELP heparin binding domain | −9.175
wtIGF: Wild-type IGF-1 (R&D systems 291-G1), control [reference compound] | −9.071
